Results reported in patent US6191115A, “C-terminus modified heptapeptide LHRH analogs” (Abbott Laboratories, priority 1999, dated 2001).
Non-standard residues stand in square brackets, D forms with d. Residues, ends and D or L forms follow the SMILES beside them. *: point of attachment. NHCH2CH2(piperidin-1-yl) = C1CCN(CCN*)CC1; dPhe(4-Cl) = N[C@H](Cc1ccc(Cl)cc1)C(=O)O; NH(2-(2-pyridyl)ethyl) = c1ccc(CCN*)nc1; NH(2-morpholinoethyl) = C(CN1CCOCC1)N*; d2Nal = N[C@H](Cc1ccc2ccccc2c1)C(=O)O; NMeY = CN[C@@H](Cc1ccc(O)cc1)C(=O)O; d3Pal = N[C@H](Cc1cccnc1)C(=O)O; NH(3-picolyl) = c1cncc(CN*)c1; Nicotinoyl = O=C(c1cccnc1)*; X5 = C1CN2CCC1C(N*)C2; X7 = CN1CCCC1CCN*; X8 = Cn1cccc1CCN*

Target: T1, LH release from rat pituitary cells (Rattus norvegicus, UniProt P30969)
T1 sequence (P30969 1-327): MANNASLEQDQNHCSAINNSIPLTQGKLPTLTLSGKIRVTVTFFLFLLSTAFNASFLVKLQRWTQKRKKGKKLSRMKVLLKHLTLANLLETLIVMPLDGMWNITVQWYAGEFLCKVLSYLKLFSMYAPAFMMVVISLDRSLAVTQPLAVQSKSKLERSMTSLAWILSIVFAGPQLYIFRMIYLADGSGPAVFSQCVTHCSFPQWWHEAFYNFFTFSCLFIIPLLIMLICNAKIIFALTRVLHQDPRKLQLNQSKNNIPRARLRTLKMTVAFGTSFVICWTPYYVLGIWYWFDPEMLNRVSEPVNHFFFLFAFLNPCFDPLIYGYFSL
Experiment: in vitro inhibition of LH release from rat pituitary cells (pA2)
Type: cell-based
Details: pA2 = negative logarithm of antagonist concentration required to shift the response curve of the agonist leuprolide to two-fold higher concentration
Method: Representative compounds of the present invention were evaluated in vitro for inhibition of LH release from rat pituitary cells (pA2). Methods for the assay procedures arc described by F. Haviv, et al. J. Med. Chem., 32:2340-2344 (1989). Values of pA2 are the negative logarithms of the concentration of the particular antagonist test compound required to shift the response curve produced by the agonist leuprolide to two-fold higher concentration. Typically values of 7.0 or greater are indicative of good LHRH antagonist potency, with values of 8.0 or greater being preferred. Leuprolide LHRH agonist, disclosed and claimed in U.S. Pat. No. 4,005,063, has the structure 5-oxo-Pro^1 -His^2 -Trp^3 -Ser^4 -Tyr^5 -D-Leu^6 -Leu^7 -Arg^8 -Pro^9 -NHEt.

SMILES | LHRH antagonist potency (pA2)
CC(=O)N[C@H](Cc1ccc2ccccc2c1)C(=O)N[C@H](Cc1ccc(Cl)cc1)C(=O)N[C@H](Cc1cccnc1)C(=O)N[C@@H](CO)C(=O)N(C)[C@@H](Cc1ccc(O)cc1)C(=O)N[C@H](CCCCNC(=O)c1cccnc1)C(=O)N[C@@H](CC(C)C)C(=O)NCc1cccnc1 [Example 24, NAcD2Nal-D4ClPhe-D3Pal-Ser-NMeTyr-DLys(Nic)-Leu-NH--CH2 -(3-pyridine)] (Ac-[d2Nal][dPhe(4-Cl)][d3Pal]S[NMeY][dK](Nicotinoyl)L-{NH(3-picolyl)}) | 8.30
CC(=O)N[C@H](Cc1ccc2ccccc2c1)C(=O)N[C@H](Cc1ccc(Cl)cc1)C(=O)N[C@H](Cc1cccnc1)C(=O)N[C@@H](CO)C(=O)N(C)[C@@H](Cc1ccc(O)cc1)C(=O)N[C@H](CCCCNC(=O)c1cccnc1)C(=O)N[C@@H](CC(C)C)C(=O)NC1CN2CCC1CC2 (stereo partly drawn) [Example 25, NAcD2Nal-D4ClPhe-D3Pal-Ser-NMeTyr-Dlys(Nic)-Leu-NH--(3-guinuclidine)] (Ac-[d2Nal][dPhe(4-Cl)][d3Pal]S[NMeY][dK](Nicotinoyl)L-X5) | 10.02
CC(=O)N[C@H](Cc1ccc2ccccc2c1)C(=O)N[C@H](Cc1ccc(Cl)cc1)C(=O)N[C@H](Cc1cccnc1)C(=O)N[C@@H](CO)C(=O)N(C)[C@@H](Cc1ccc(O)cc1)C(=O)N[C@H](CCCCNC(=O)c1cccnc1)C(=O)N[C@@H](CC(C)C)C(=O)NCCN1CCCCC1 [Example 26, NAcD2Nal-D4ClPhe-D3Pal-Ser-NMeTyr-DLys(Nic)-Leu-NH--CH2 --CH2 -(1-piperidine)] (Ac-[d2Nal][dPhe(4-Cl)][d3Pal]S[NMeY][dK](Nicotinoyl)L-{NHCH2CH2(piperidin-1-yl)}) | 9.30
CC(=O)N[C@H](Cc1ccc2ccccc2c1)C(=O)N[C@H](Cc1ccc(Cl)cc1)C(=O)N[C@H](Cc1cccnc1)C(=O)N[C@@H](CO)C(=O)N(C)[C@@H](Cc1ccc(O)cc1)C(=O)N[C@H](CCCCNC(=O)c1cccnc1)C(=O)N[C@@H](CC(C)C)C(=O)NCCN1CCOCC1 [Example 27, NAcD2Nal-D4ClPhe-D3Pal-Ser-NMeTyr-DLys(Nic)-Leu-NH--CH2 --CH2 -(1-norpholine)] (Ac-[d2Nal][dPhe(4-Cl)][d3Pal]S[NMeY][dK](Nicotinoyl)L-{NH(2-morpholinoethyl)}) | 8.30
CC(=O)N[C@H](Cc1ccc2ccccc2c1)C(=O)N[C@H](Cc1ccc(Cl)cc1)C(=O)N[C@H](Cc1cccnc1)C(=O)N[C@@H](CO)C(=O)N(C)[C@@H](Cc1ccc(O)cc1)C(=O)N[C@H](CCCCNC(=O)c1cccnc1)C(=O)N[C@@H](CC(C)C)C(=O)NCCc1ccccn1 [Example 28, NAcD2Nal-D4ClPhe-D3Pal-Ser-NMeTyr-DLys(Nic)-Leu-NH--CH2 --CH2 -(2-pyridine)] (Ac-[d2Nal][dPhe(4-Cl)][d3Pal]S[NMeY][dK](Nicotinoyl)L-{NH(2-(2-pyridyl)ethyl)}) | 8.10
CC(=O)N[C@H](Cc1ccc2ccccc2c1)C(=O)N[C@H](Cc1ccc(Cl)cc1)C(=O)N[C@H](Cc1cccnc1)C(=O)N[C@@H](CO)C(=O)N(C)[C@@H](Cc1ccc(O)cc1)C(=O)N[C@H](CCCCNC(=O)c1cccnc1)C(=O)N[C@@H](CC(C)C)C(=O)NCCc1cccn1C [Example 29, NAcD2Nal-D4ClPhe-D3Pal-Ser-NMeTyr-DLys(Nic)-Leu-NH--CH2 --CH2 -[2-(1-methyl)pyrrole]] (Ac-[d2Nal][dPhe(4-Cl)][d3Pal]S[NMeY][dK](Nicotinoyl)L-X8) | 8.30
CC(=O)N[C@H](Cc1ccc2ccccc2c1)C(=O)N[C@H](Cc1ccc(Cl)cc1)C(=O)N[C@H](Cc1cccnc1)C(=O)N[C@@H](CO)C(=O)N(C)[C@@H](Cc1ccc(O)cc1)C(=O)N[C@H](CCCCNC(=O)c1cccnc1)C(=O)N[C@@H](CC(C)C)C(=O)NCCC1CCCN1C (stereo partly drawn) [Example 30, NAcD2Nal-D4ClPhe-D3Pal-Ser-NMeTyr-DLys(Nic)-Leu-NH--CH2 --CH2 -[2-(1-methyl)pyrrolidine]] (Ac-[d2Nal][dPhe(4-Cl)][d3Pal]S[NMeY][dK](Nicotinoyl)L-X7) | 9.80
